In publication PMC7194099, “Transient expression and purification of β-caryophyllene synthase in Nicotiana benthamiana to produce β-caryophyllene in vitro” (PeerJ, 2020):

Biological target: T1, AaCPS1 (β-caryophyllene synthase) (Artemisia annua, UniProt A0A059PYD5)
T1 construct: gene CPS; C-terminal 6xHis tag kept; transient expression in Nicotiana benthamiana (pEAQ-HT)
Assay: GC-MS of dodecane overlay
Type: biochemical
Conditions: 20 µM FPP, 20 mM MgCl2, 20 mM Tris-HCl pH 7.0, 10% glycerol, 2 mM DTT, 30 °C, 4 h; products β-caryophyllene (main) and α-humulene

T1 sequence (A0A059PYD5 1-550): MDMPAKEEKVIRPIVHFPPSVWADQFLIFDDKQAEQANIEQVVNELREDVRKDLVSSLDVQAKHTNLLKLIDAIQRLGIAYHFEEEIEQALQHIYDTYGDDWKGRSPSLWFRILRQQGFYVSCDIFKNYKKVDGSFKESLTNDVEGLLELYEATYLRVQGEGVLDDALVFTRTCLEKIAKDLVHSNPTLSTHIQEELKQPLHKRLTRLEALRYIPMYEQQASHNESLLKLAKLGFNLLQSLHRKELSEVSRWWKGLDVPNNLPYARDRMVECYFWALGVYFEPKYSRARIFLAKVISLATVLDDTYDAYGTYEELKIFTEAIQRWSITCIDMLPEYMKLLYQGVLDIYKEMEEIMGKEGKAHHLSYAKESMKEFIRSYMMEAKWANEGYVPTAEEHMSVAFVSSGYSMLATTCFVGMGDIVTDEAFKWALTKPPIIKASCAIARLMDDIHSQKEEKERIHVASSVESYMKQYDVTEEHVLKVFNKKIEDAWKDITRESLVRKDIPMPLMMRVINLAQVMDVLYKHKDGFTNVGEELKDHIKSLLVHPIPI

CC(C)=CCC/C(C)=C/CC/C(C)=C/COP(=O)(O)OP(=O)(O)O [FPP, farnesyl diphosphate]
GC-MS of dodecane overlay: the purified AaCPS1 was incubated with the substrate FPP
